Laboratory results as given in the supplement of paper PMC10307832.

How the values were obtained:
Test in all cases: relative viability (nuclei count vs DMSO), 5 days (fraction); higher = more cells survive
[1] = compound: C1=CC2=C(C=CC(=C2)C=C3C(=O)NC(=NCC4=CC=CS4)S3)N=C1 [RO-3306] + Cc1nc(NC(=O)N2CCC[C@H]2C(N)=O)sc1-c1ccnc(C(C)(C)C(F)(F)F)c1 [Alpelisib] (partner 2 µM)
Summary of the method: (§1)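 Relative viability divides the nuclei count in treated wells by that in vehicle wells. Lung cancer cell lines were seeded in 1536-well plates, dosed by pin tool the next day, and fixed and stained after 5 days in one step with final 0.05% Triton X-100, 1% formaldehyde and 1 ug/ml Hoechst. Dosing was a single drug or a fixed anchor-drug dose plus five library-drug doses (not always all listed) in √10 steps, and values are medians of duplicate plates imaged at 4×.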

[2] = compound: O=S(=O)(c1ccccc1)N(CC(F)(F)F)c1ccc(C(O)(C(F)(F)F)C(F)(F)F)cc1 + CC(=O)Nc1cccc(-n2c(=O)n(C3CC3)c(=O)c3c(Nc4ccc(I)cc4F)n(C)c(=O)c(C)c32)c1 [Trametinib] (partner 0.02 µM)
Summary of the method: as §1

[3] = compound: C1=CC2=C(C=CC(=C2)C=C3C(=O)NC(=NCC4=CC=CS4)S3)N=C1 [RO-3306] + Nc1ncn([C@H]2C[C@H](O)[C@@H](CO)O2)c(=O)n1 [Decitabine] (partner 2 µM)
Summary of the method: as §1

[4] = compound: O=S(=O)(c1ccccc1)N(CC(F)(F)F)c1ccc(C(O)(C(F)(F)F)C(F)(F)F)cc1 + COc1cc2c(Oc3ccc(NC(=O)C4(C(=O)Nc5ccc(F)cc5)CC4)cc3F)ccnc2cc1OCCCN1CCOCC1 [Foretinib] (partner 0.25 µM)
Summary of the method: as §1

Cell Line	relative viability ([1]; first compound 0.01 µM)	relative viability ([1]; first compound 0.03162 µM)	relative viability ([1]; first compound 0.1 µM)	relative viability ([1]; first compound 0.3162 µM)	relative viability ([1]; first compound 1 µM)	relative viability ([2]; first compound 0.8 µM)	relative viability ([2]; first compound 2.53 µM)	relative viability ([2]; first compound 8 µM)	relative viability ([3]; first compound 0.01 µM)	relative viability ([3]; first compound 0.03162 µM)	relative viability ([3]; first compound 0.1 µM)	relative viability ([3]; first compound 0.3162 µM)	relative viability ([3]; first compound 1 µM)	relative viability ([4]; first compound 0.8 µM)	relative viability ([4]; first compound 2.53 µM)	relative viability ([4]; first compound 8 µM)
201T	1.03	1.01	1.05	0.973	1.04	0.712	0.666	0.681	0.824	0.849	0.879	0.855	0.893	1.1	0.968	0.92
ChaGo-K-1	–	–	–	–	–	0.998	0.862	0.884	0.514	0.508	0.521	0.476	0.363	1.04	0.84	0.818
NCI-H1993	–	0.657	0.712	0.589	0.666	0.554	0.457	0.478	0.616	0.493	0.486	0.575	0.657	0.681	0.726	0.679
EMC-BAC-2	0.763	0.63	0.717	0.774	0.726	0.813	0.735	0.758	1.1	0.915	0.963	0.954	0.972	1.22	1.04	0.954
IA-LM	0.895	0.56	0.725	0.708	0.948	–	–	–	–	–	–	–	–	1.08	1	1.12
HCC-15	1.03	0.815	0.869	0.887	0.855	0.37	0.302	0.291	0.606	0.547	0.563	0.662	0.552	1.03	0.951	0.847
EKVX	0.958	0.833	0.841	1.02	0.83	0.3	0.272	0.324	0.298	0.277	0.385	0.322	0.29	0.751	0.479	0.82
PC-14	0.981	–	0.939	0.953	0.996	0.705	0.554	0.477	0.196	0.209	0.222	0.277	0.244	1.11	1.09	0.988
EBC-1	0.895	0.727	1.04	0.965	0.904	–	–	–	–	–	–	–	–	0.0993	0.114	0.126
LK-2	1.27	0.897	1.02	1.31	1.03	0.69	0.548	0.704	0.279	0.215	0.282	0.301	0.286	1.21	1.16	0.835
LCLC-97TM1	–	0.243	0.243	0.27	0.179	–	0.234	0.165	0.203	0.223	0.196	0.229	0.266	0.914	0.928	0.805
NCI-H520	0.992	0.811	0.838	0.854	0.836	0.861	0.603	0.701	0.568	0.542	0.469	0.501	0.554	0.923	0.686	0.699
NCI-H2405	0.801	0.707	0.784	0.874	0.695	0.673	0.615	0.707	0.703	0.751	0.803	0.685	0.727	1.14	1.05	0.979
NCI-H1623	–	–	–	–	–	–	–	–	–	–	–	–	–	0.802	0.805	0.851
SW 900	–	–	–	–	–	0.787	0.828	0.607	0.45	0.425	0.42	0.404	0.549	0.752	0.784	0.82
NCI-H1792	0.803	–	0.668	0.757	0.457	0.407	0.303	0.287	0.702	–	0.47	0.606	0.481	–	–	–
Calu-6	1.21	0.91	1.04	0.931	0.982	–	–	–	–	–	–	–	–	0.822	0.809	0.768
A549	0.744	–	0.72	0.756	0.715	–	–	–	0.284	–	0.245	0.254	0.36	0.962	0.944	0.752
NCI-H2228	0.623	0.777	0.865	0.673	0.609	0.693	0.371	0.429	–	–	–	–	–	0.65	0.657	0.839
NCI-H1563	0.992	0.906	0.823	1	0.898	–	–	–	–	–	–	–	–	0.922	0.827	0.893
NCI-H1703	0.467	0.324	0.342	0.262	0.307	–	–	–	–	–	–	–	–	0.339	0.23	0.29
CAL-12T	1.38	1.26	1.17	1.19	1.37	0.247	0.265	0.238	–	–	–	–	–	1.06	0.962	0.936
NCI-H1650	–	–	–	–	–	0.513	0.645	0.53	0.482	0.456	0.427	0.472	0.407	1.33	0.904	1.28
NCI-H2342	–	–	–	–	–	0.917	0.854	0.861	0.746	0.654	0.755	0.773	0.673	1.15	1.03	0.951
HCC-44	0.853	0.836	0.817	1.03	0.832	1.01	0.925	0.918	0.951	0.95	1.02	0.917	0.956	–	–	–
NCI-H1648	–	–	–	–	–	0.628	0.369	0.44	0.545	–	0.357	0.47	0.472	–	–	–
